Assay results as given in US5925571A, “Method of testing immune competency” (Oxi-Gene, Inc., priority 1997, dated 1999).

Tests used:
[1] = system: ADPRT (adenosine diphosphate ribosyl transferase) in HML; assay: PMA induced ADPRT activity in HML treated with HOCl or chloramine T (permeabilized cell radiometric assay); assay type: cell-based, human; details: doses of 80 μM; 30 min at 37° C., then PMA 25 ng/ml for 30 min; versus zero-dose control; FIG. 2
Protocol: (§1) ADPRT assay.--The procedure was adapted from the permeabilized cell technique of Berger (Methods Cell Biol. 20:325-340, 1988) with modifications as previously described (Pero et al, Carcinogenesis 10:1657-64, 1989). Duplicate samples of 1×10^6 HML in the presence of 0 to 4×10^6 neutrophils were cultured in 1 ml of KRPG buffer for 30 min at 37° C. in the presence of PMA (phorbol-12-myristate-13-acetate, 25 ng/ml). After this co-incubation, the HML+ neutrophil mixtures were harvested by centrifugation, permeabilized, and ADPRT activity determined by radiometric procedure as described in detail elsewhere (Pero et al, Carcinogenesis 10:1657-64, 1989). […]
The effect of various dosage levels of chloramine T and HOCl on PMA induced ADPRT activity in HML was investigated utilizing the procedures described above for such tests, measuring the PMA induced ADPRT activity for HML subjected to the various dosages, and comparing the values obtained with measured control values of PMA induced ADPRT activity in HML from the same source but with zero dosages of chloramine T and HOCl.

[2] = system: ADPRT (ADP-ribosylation) in HML; assay: HML + neutrophil co-culture exposed to PMA: HML ADP-ribosylation versus HOCl production; assay type: cell-based, human; details: 1×10^6 HML with 0 to 4×10^6 neutrophils, PMA 25 ng/ml, 30 min at 37° C.; FIG. 1
Protocol: HOCl measurement.--Mixed cultures of HML+ neutrophils were assayed for the production of HOCl in the extracellular conditioned medium by removal of the cells by centrifugation following the incubation period, and immediately trapping the produced HOCl with taurine (20 mM). Taurine chloramine was then quantified spectrophotometrically by using the conversion of I^- to I2 (E=2.29×10^4 M^-1 cm^-1). Details of this procedure have been described by Weiss et al (J. Clin. Invest. 70:598-607, 1982).
as §1
This Example establishes that human phagocytes (i.e. neutrophils) produce physiologic relevant concentrations of endogenous ADPRT inhibitors. […] The respiratory burst induced by PMA exposure of neutrophils was monitored by HOCl production. […]

Row | SMILES | inhibition of HML ADPRT activity [1] [%] | produced concentration sufficient to cause inhibition of HML ADP-ribosylation [2]
1 | OCl [HOCl] | > 80 | about 80 μM
2 | Cc1ccc(S(=O)(=O)[N-]Cl)cc1.[Na+] [N-chloramine, chloramine T] | > 80 | about 80 μM
